Data on one compound can be found in patent US20220031710A1, “USE OF ERK5 INHIBITORS FOR TREATING GLIOMAS IN PEDIATRIC SUBJECTS” (UNIVERSITY OF PITTSBURGH - OF THE COMMONWEALTH SYSTEM OF …, priority 2019, published 2022).

One assay has as its target ERK5 (Homo sapiens, UniProt Q13164). Description: Western blot of tumor lysates from treated mice (pERK5, cleaved PARP). To be noted: mice sacrificed after 5 days of treatment. Also noted: from tissue; host or cells: Tumour lysates from orthotopic DIPG xenografts (SF8628 or DIPG-13p) in NOD-SCID mice. Format: in vivo. The method, then:
(§1) Cell pellets were lysed in PLC lysis buffer containing protease and phosphatase inhibitors (Roche Inc.). Protein lysates were quantified using the bicinchoninic acid (BCA) assay (Pierce Chemical Co., Rockford, Ill.). 30 μg of total protein lysate was loaded in 10% SDS-PAGE gels and electrophoresed. Proteins were transferred to PVDF membranes using a semi-dry transfer apparatus (Bio-Rad). Membranes were blocked for one hour and probed for various proteins overnight in 5% non-fat milk or 5% BSA in Tris Buffered Saline Solution, 0.5% Tween-20 (TBST) or Phosphate Buffered Saline Solution with 0.5% Tween-20 (PBST). Membranes were washed for 5 mins in TBST (3×) and incubated with horseradish peroxidase-conjugated antibodies specific for the primary antibody (BioRad Laboratories, Inc., CA, USA). Binding was detected using Chemiluminescence Reagent Plus (PerkinElmer Inc., MA, USA). Antibodies were used at the following dilutions:
All animal procedures were carried out ethically according to animal user protocols approved by Institutional Animal Care Committee (IACUC). 4-6 week-old non-obese diabetic severe combined immune deficiency male or female mice (NOD-SCID-Prkdc^scid) were injected with 1×10^5 SU-DIPG-13p cells or 1×10^5 SF8628 DIPG cells. […]
On the technique in general: In western blotting, separated proteins are transferred to a membrane and probed.

In a further assay the test system is MYC. Description: Western blot of phospho MYC S62 and total MYC in DIPG cells. Format: cell-based, human. To be noted: DIPG-IV and SF8628 cells; 500 nM. The method, then: as §1, with “USA).” for “USA). Antibodies were used at the following dilutions:”

Chain of ERK5 (Q13164 whole entry): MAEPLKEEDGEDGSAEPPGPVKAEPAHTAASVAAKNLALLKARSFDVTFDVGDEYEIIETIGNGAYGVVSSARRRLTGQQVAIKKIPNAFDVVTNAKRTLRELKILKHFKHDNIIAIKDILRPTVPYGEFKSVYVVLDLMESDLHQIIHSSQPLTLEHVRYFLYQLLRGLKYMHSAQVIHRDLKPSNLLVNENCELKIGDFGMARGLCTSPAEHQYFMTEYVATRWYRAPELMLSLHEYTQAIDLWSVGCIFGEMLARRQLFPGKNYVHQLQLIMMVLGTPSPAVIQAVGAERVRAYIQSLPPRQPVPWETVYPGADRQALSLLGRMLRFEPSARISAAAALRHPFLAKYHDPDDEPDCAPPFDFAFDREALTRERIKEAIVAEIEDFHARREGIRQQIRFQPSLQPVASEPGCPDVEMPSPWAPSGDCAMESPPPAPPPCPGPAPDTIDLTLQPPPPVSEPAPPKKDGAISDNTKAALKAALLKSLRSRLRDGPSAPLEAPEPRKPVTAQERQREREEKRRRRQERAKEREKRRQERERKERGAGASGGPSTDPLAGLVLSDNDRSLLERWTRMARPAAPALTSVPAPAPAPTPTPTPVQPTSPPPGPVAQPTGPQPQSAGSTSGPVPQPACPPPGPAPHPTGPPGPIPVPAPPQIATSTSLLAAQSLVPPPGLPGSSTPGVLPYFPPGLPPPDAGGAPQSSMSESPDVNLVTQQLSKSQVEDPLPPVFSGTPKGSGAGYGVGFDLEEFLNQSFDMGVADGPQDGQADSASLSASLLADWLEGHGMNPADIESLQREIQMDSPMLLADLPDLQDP

With `CCOc1cc(C(=O)N2CCC(N3CCN(C)CC3)CC2)ccc1Nc1ncc2c(n1)N(C1CCCC1)c1ccccc1C(=O)N2C` [ERK5-IN-1, 11-cyclopentyl-2-[[2-ethoxy-4-[[4-(4-methyl-1-piperazinyl)-1-piperidinyl]carbonyl]phenyl]amino]-5,11-dihydro-5-methyl-6H-pyrimido[4,5b][1,4]benzodiazepin-6-one], at ERK5, the “apoptosis by cleaved PARP in vivo” value is “induction of apoptosis” and the “in vivo ERK5 auto-phosphorylation” value is listed as “inhibition of ERK5 auto-phosphorylation”. Moreover, in the assay with MYC, the “phospho and total MYC” value is “reduced”.
